Laboratory results from patent US9408393B2, “Bismuth-thiols as antiseptics for agricultural, industrial and other uses” (Microbion Corporation, priority 2010, dated 2016).
Read-outs that look alike come from different tables or passages of the source.

Experiments:
P. aeruginosa = assay: Checkerboard broth microdilution MIC and FICI; type: cell-based, Pseudomonas aeruginosa; conditions: for MIC (μg/mL) Alone / MIC: compound alone; for MIC: Pseudomonas aeruginosa
Experimental: (§1) The effects of combinations of microparticulate Bis-EDT and four Bis-EDT analogs prepared as described above, and other agents against representative strains of several Gram-negative pathogenic bacteria were tested. A modification of a common laboratory method was used to determine synergism (FICI≦0.5), enhancement (0.5<FICI≦1.0), antagonism (FICI>4.0) and indifference (1.0<FICI≦4.0) used fractional inhibitory concentrations (FICs) and FIC indices (FICI) (Eliopoulos G and R Moellering. 1991. Antimicrobial combinations. In Antibiotics in Laboratory Medicine, Third Edition, edited by V Lorian. Williams and Wilkins, Baltimore, Md., pp. 432-492; Odds, 2003 J. Antimicrob. Chemother. 52(1):1). The checkerboard technique was used to determine FIC indices and was employed in this study.
(§2) Stock solutions of all test articles were prepared at 40× the final target concentration in the appropriate solvent. […] The final drug concentrations in the FIC assay plates were set to bracket the MIC value of each agent for each test organism, unless the strain was totally resistant to the test agent. […] The test organisms were originally received from clinical sources, or from the American Type Culture Collection. Upon receipt, the isolates were streaked onto Tryptic Soy Agar II (TSA). Colonies were harvested from these plates and a cell suspension was prepared in an appropriate broth growth medium containing cryoprotectant. Aliquots were then frozen at −80° C. The frozen seeds of the organisms to be tested in a given assay were thawed, streaked for isolation onto TSA plates, and incubated at 35° C. All organisms were tested in Mueller Hinton II Broth (Becton Dickinson, Lot No. 9044411). The broth was prepared at 1.05× normal weight/volume to offset the 5% volume of the drugs in the final test plates.
(§3) Minimal Inhibitory Concentration (MIC) values were previously determined using the broth microdilution method for aerobic bacteria (Clinical and Laboratory Standards Institute (CLSI). Methods for Dilution Antimicrobial Susceptibility Tests for Bacteria That Grow Aerobically; Approved Standard—Eighth Edition. CLSI document M07-A8 [ISBN 1-56238-689-1]. Clinical and Laboratory Standards Institute, 940 West Valley Road, Suite 1400, Wayne, Pa. 19087-1898 USA, 2009.).
(§4) FIC values were determined using a broth microdilution method previously described (Sweeney et al., 2003 Antimicrob. Agents Chemother. 47(6):1902-1906). To prepare the test plates, automated liquid handlers (Multidrop 384, Labsystems, Helsinki, Finland; Biomek 2000 and Multimek 96, Beckman Coulter, Fullerton Calif.) were used to conduct serial dilutions and liquid transfers.
(§5) The appropriate wells of standard 96-well microdilution plates (Falcon 3918) were filled with 150 μL of the appropriate solvent in columns 2-12 using the Multidrop 384. Three hundred microliters of each secondary test drug was added to each well in Column 1 of the plates. These plates were used to prepare the drug “mother plates” which provided the serial drug dilutions for the drug combination plates. The Biomek 2000 was used to transfer 150 μL of each secondary drug solution (40×) from the wells in Column 1 of the mother plate and to make eleven 2-fold serial dilutions. Mother plates of Bis-EDT (and analogs) were serial diluted top to bottom by hand, using a multichannel pipette. Two mother plates, one for each secondary drug and one for Bis-EDT (or analogs), were combined to form a “checkerboard” pattern by transfer of equal volumes (using a multi-channel pipette) to the drug combination plate. Row H and Column 12 each contained serial dilutions of one of the agents alone for determination of the MIC.
(§6) The “daughter plates” were loaded with 180 μL of test medium using the Multidrop 384. Then, the Multimek 96 was used to transfer 10 μL of drug solution from each well of the drug combination mother plate to each corresponding well of the daughter plate in a single step.

[1] = system: Gram-negative pathogenic bacteria; assay: Checkerboard broth microdilution MIC and FICI; type: cell-based; conditions: for MIC (μg/mL) Alone / MIC: compound alone; for FICI, Fractional Inhibitory Concentration Index: in combination with Cefotaxime; for MIC: Klebsiella pneumoniae
Experimental: as §1, §2, §3, §4, §5, §6

[2] = P. aeruginosa 103, in combination with Cefepime
[3] = P. aeruginosa 103, in combination with Cefotaxime
[4] = P. aeruginosa 1381, in combination with Cefepime
[5] = P. aeruginosa 1384, in combination with Cefepime
[6] = P. aeruginosa 1474, in combination with Cefepime
[7] = P. aeruginosa 1479, in combination with Cefepime
[8] = P. aeruginosa 2566, in combination with Cefepime
[9] = P. aeruginosa 2568, in combination with Cefepime

Compound: C1C[S][Bi]([S]CC[S][Bi]2[S]CC[S]2)[S]1 [MB-1B-3, bismuth-1,2-ethane dithiol]
- MIC (μg/mL) Alone (P. aeruginosa; P. aeruginosa 103): 1 µg/mL
- FICI, Fractional Inhibitory Concentration Index (P. aeruginosa; [2]): 0.71
- FICI, Fractional Inhibitory Concentration Index (P. aeruginosa; [3]): 0.96
- MIC (μg/mL) Alone (P. aeruginosa; P. aeruginosa 1381): 1 µg/mL
- FICI, Fractional Inhibitory Concentration Index (P. aeruginosa; [4]): 1.29
- MIC (μg/mL) Alone (P. aeruginosa; P. aeruginosa 1384): 1 µg/mL
- FICI, Fractional Inhibitory Concentration Index (P. aeruginosa; [5]): 0.79
- MIC (μg/mL) Alone (P. aeruginosa; P. aeruginosa 1474): 1 µg/mL
- FICI, Fractional Inhibitory Concentration Index (P. aeruginosa; [6]): 0.79
- MIC (μg/mL) Alone (P. aeruginosa; P. aeruginosa 1479): 1 µg/mL
- FICI, Fractional Inhibitory Concentration Index (P. aeruginosa; [7]): 1.12
- MIC (μg/mL) Alone (P. aeruginosa; P. aeruginosa 2566): 0.5 µg/mL
- FICI, Fractional Inhibitory Concentration Index (P. aeruginosa; [8]): 1.37
- MIC (μg/mL) Alone (P. aeruginosa; P. aeruginosa 2568): 1 µg/mL
- FICI, Fractional Inhibitory Concentration Index (P. aeruginosa; [9]): 0.79
- MIC (μg/mL) Alone ([1]; K. pneumoniae 1346): 2 µg/mL
- FICI, Fractional Inhibitory Concentration Index ([1]; K. pneumoniae 1346): 1.23
- MIC (μg/mL) Alone ([1]; K. pneumoniae 1355): 1 µg/mL
- FICI, Fractional Inhibitory Concentration Index ([1]; K. pneumoniae 1355): 2.29
- MIC (μg/mL) Alone ([1]; K. pneumoniae 2238): 1 µg/mL
- FICI, Fractional Inhibitory Concentration Index ([1]; K. pneumoniae 2238): 1.29
- MIC (μg/mL) Alone ([1]; K. pneumoniae 2541): 2 µg/mL
- FICI, Fractional Inhibitory Concentration Index ([1]; K. pneumoniae 2541): 1.23
- MIC (μg/mL) Alone ([1]; K. pneumoniae 2546): 1 µg/mL
- FICI, Fractional Inhibitory Concentration Index ([1]; K. pneumoniae 2546): 1.12
- MIC (μg/mL) Alone ([1]; K. pneumoniae 2549): 1 µg/mL
- FICI, Fractional Inhibitory Concentration Index ([1]; K. pneumoniae 2549): 0.79

Compound: OCC(S)CS.[Bi] (stereo not shown) [MB-2B, bismuth-2,3-dimercaptopropanol]
- FICI, Fractional Inhibitory Concentration Index (P. aeruginosa; P. aeruginosa 103, in combination with Aztreonam): 1.08
- FICI, Fractional Inhibitory Concentration Index (P. aeruginosa; [2]): 0.61
- FICI, Fractional Inhibitory Concentration Index (P. aeruginosa; [3]): 1.11
- MIC (μg/mL) Alone (P. aeruginosa; P. aeruginosa 1381): 4 µg/mL
- FICI, Fractional Inhibitory Concentration Index (P. aeruginosa; P. aeruginosa 1381, in combination with Aztreonam): 0.89
- FICI, Fractional Inhibitory Concentration Index (P. aeruginosa; [4]): 1.09
- MIC (μg/mL) Alone (P. aeruginosa; P. aeruginosa 1384): 4 µg/mL
- FICI, Fractional Inhibitory Concentration Index (P. aeruginosa; P. aeruginosa 1384, in combination with Aztreonam): 0.91
- FICI, Fractional Inhibitory Concentration Index (P. aeruginosa; [5]): 0.94
- FICI, Fractional Inhibitory Concentration Index (P. aeruginosa; P. aeruginosa 1474, in combination with Aztreonam): 0.54
- FICI, Fractional Inhibitory Concentration Index (P. aeruginosa; [6]): 0.98
- FICI, Fractional Inhibitory Concentration Index (P. aeruginosa; P. aeruginosa 1479, in combination with Aztreonam): 0.87
- FICI, Fractional Inhibitory Concentration Index (P. aeruginosa; [7]): 1.11
- FICI, Fractional Inhibitory Concentration Index (P. aeruginosa; P. aeruginosa 2566, in combination with Aztreonam): 0.91
- FICI, Fractional Inhibitory Concentration Index (P. aeruginosa; [8]): 1.23
- FICI, Fractional Inhibitory Concentration Index (P. aeruginosa; P. aeruginosa 2568, in combination with Aztreonam): 0.87
- FICI, Fractional Inhibitory Concentration Index (P. aeruginosa; [9]): 1.11
- MIC (P. aeruginosa; read-out: MIC (μg/mL) Alone, P. aeruginosa 1381): 8 µg/mL
- MIC (P. aeruginosa; read-out: MIC (μg/mL) Alone, P. aeruginosa 1384): 8 µg/mL
- FICI, Fractional Inhibitory Concentration Index ([1]; K. pneumoniae 1346): 1.19
- FICI, Fractional Inhibitory Concentration Index ([1]; K. pneumoniae 1355): 1.19
- FICI, Fractional Inhibitory Concentration Index ([1]; K. pneumoniae 2238): 1.64
- FICI, Fractional Inhibitory Concentration Index ([1]; K. pneumoniae 2541): 0.64
- FICI, Fractional Inhibitory Concentration Index ([1]; K. pneumoniae 2546): 1.16
- FICI, Fractional Inhibitory Concentration Index ([1]; K. pneumoniae 2549): 0.83
- MIC ([1]; read-out: MIC (μg/mL) Alone, K. pneumoniae 1346): 4 µg/mL
- MIC ([1]; read-out: MIC (μg/mL) Alone, K. pneumoniae 1355): 4 µg/mL
- MIC ([1]; read-out: MIC (μg/mL) Alone, K. pneumoniae 2238): 4 µg/mL
- MIC ([1]; read-out: MIC (μg/mL) Alone, K. pneumoniae 2541): 8 µg/mL
- MIC ([1]; read-out: MIC (μg/mL) Alone, K. pneumoniae 2546): 8 µg/mL
- MIC ([1]; read-out: MIC (μg/mL) Alone, K. pneumoniae 2549): 8 µg/mL
